Data from US12558329B2 (New York University, priority 2021, dated 2026).
Entries after “also recorded” stand apart in the source; their conditions may differ.

Columns and labels:
human cells = test: 18O2-GASSP labelling of human cells, untargeted polar metabolomics, with or without IOX1; type: cell-based; conditions: A498 and SKNDZ cells, 3%, 1%, 0.2% 18O2, IOX1 24 hours
Description: To map the molecular fate of O2 in metabolic pathways in living cells, GASSP was used to carry out ^18O2 labelling in cell lines of different tissue origins at ^18O2 concentrations that represented physiological (3%), hypoxic (1%), and severely hypoxic (0.2%) oxygen tensions found in tissues and tumours^7. At the end of each run, polar metabolites were extracted and untargeted polar metabolomics using liquid chromatography-high resolution mass spectrometry (LC-MS) were carried out to identify metabolites labeled with ^18O.
A list of unique features identified by untargeted metabolomics that were >0.25% (natural abundance of ^18O is 0.2%) labelled by ^18O atoms in each cell line at each oxygen tension was generated. In addition, background signal was controlled by requiring that ^18O labeled peaks had to have a signal that was two-fold greater than naturally occurring isotopes found in non-labelled (^16O) metabolite cell extracts. To determine the proportion of unique ^18O labelled features that were due to dioxygenase activity, cells were treated with a pan-dioxygenase inhibitor (IOX1) at concentrations that inhibit iron-dependent dioxygenases, such as the HIF1α prolyl hydroxylases (FIGS. 5E-5F) and identified ^18O labelled polar metabolites. This list of ^18O metabolites was generated by identifying all features in the unlabelled samples, filtering these features against blank samples to remove background peaks, and calculating the fractional ^18O labelling with the assumption that a metabolite would have no more than three oxygen atoms labelled, followed by manual curation of labelled features (FIG. 1B and FIG. 5G). […] These ^18O-labelled features were termed the oxy-metabolome.
To determine the identities of the labeled metabolites, the list of ^18O labelled features was annotated to their corresponding unlabelled metabolites using retention time matching, tandem mass spectrometry (MS2) fragmentation patterns, and database searching.
All steps involved in setting up labelling with ^18O2 were performed at room temperature and inside a chemical fume hood. The procedure may vary depending on the type and number of tissue culture plates in the chamber and the amount of media in the plates. Users must test the system by using ^16O2:CO2:N2 or other unlabelled gases to optimize conditions for their needs and avoid consumption of costly labelled gases. Cells were treated with or without 5 μM MG132, 500 μM IOX1, 250 μM DFO, or 70 μM ascorbate, before placing tissue culture plates into the modular incubator chamber (MIC) containing a wireless oxygen sensor and a 15 cm dish of water to maintain humidity. Next, the clamps were closed to form an air-tight seal between the lid and platform of the MIC. […] N2 flushing was repeated for a total of three times, or until the sensor in the chamber stabilized at 0% O2 for 10 minutes.

MIAPACA2 cells = test: 13C9-Tyr tracing in MIAPACA2 cells with the indicated reagents; type: cell-based, human
From the text: 4-HMA biosynthesis has only been described in some bacteria and in rabbits. […] The production of 4-HPPA occurs in the first step of tyrosine (Tyr) catabolism via tyrosine transaminase (TAT). In rabbits, 4-HMA was proposed to be synthesized from the degradation of tyramine and octopamine by dopamine β-hydroxylase (Dbh) and monoamine oxidase (Mao) (FIG. 9A)^13. Tyramine is also a Tyr-derived metabolite. Therefore, all known substrates required to generate 4-HMA are derived from Tyr. In addition, Tyr can also be made from phenylalanine (Phe) by Phe hydroxylase (PAH) in mammalian liver cells^14. To elucidate the human 4-HMA biosynthetic pathway, the fates of ^13C9-Tyr and ^13C6-Phe were traced in human cells. […] Additionally, the generation of 4-HMA by […] would result in the incorporation of a single ^18O at the Ca position of the carboxylic acid of 4-HMA (FIG. 9A). However, this was not observed by ^18O labelling (FIG. 8B). Therefore, it was unlikely that 4-HMA biosynthesis from octopamine and tyramine catabolism occurred in the present system.
Unexpectedly, 4-HMA levels also were lower in hyperoxic (21%) conditions compared to 3% O2, reflecting either decreased production or increased consumption of this metabolite at 21% O2.
Therefore, CoQ10 was used as an indirect readout of 4-HB production. To assess the ability of human cells to biosynthesize CoQ10, cells were labelled with ^13C6-Phe or ^13C9-Tyr. CoQ10 was completely biosynthesized from Tyr, but not Phe, in human cells (FIG. 11B).
For metabolomics, briefly, cells were washed in 4° C. 0.9% saline and metabolites were extracted with 46% methanol:23% H2O:[…] chloroform that contained a labelled amino acid standard mix (MSK-A2-1.2, Cambridge Isotope Laboratories, Inc.). Enzymatic assay samples were extracted using 80% methanol: 20% H2O that contained labelled amino acid standards. Extracts were placed into 1.5 mL Eppendorf tubes, vortexed at 4° C. for 10 min and centrifuged at 4° C. for 10 min at 17,200×g in a microcentrifuge. The aqueous phase was transferred to vials for GC-MS or Eppendorf tubes for LC-MS. Polar samples were evaporated in a SpeedVac and samples were resolved by GC-MS or LC-MS. Lipid samples were dried using a stream of N2 (for ^18O labelling studies) or air. Metabolite and lipid extracts were submitted to the NYULMC Metabolomics Core Resource Laboratory.
For polar metabolomics, the LC column was a Millipore ZIC-pHILIC (2.1×150 […], 5 μm bead size) coupled to a Dionex UltiMate 3000 system. The column oven temperature was held at 25° C. The flow rate was 100 μL/min, and the injection volume was 1 μL. Buffer A was 10 mM ammonium carbonate in water, pH 9, and Buffer B was neat acetonitrile. The gradient profile was 80-20% B (0-30 min), 20-80% B (30-31 min), and 80-80% B (31-42 min). MS Analyses were carried out on a Thermo Q Exactive HF mass spectrometer using a heated electrospray ionization (HESI) source. The method duration was 30 min using a polarity-switching, top 5 method. The spray voltage for both positive and negative ion modes was 3.5 kV. The capillary temperature was 320° C. with a maximum spray current of 100 ρA. The full MS scan was carried out at 120,000 resolution with a scan range of 67-1000 m/z. For ^18O2 labelling experiments, full MS scans were carried out at 240,000 resolution at the same scan range. Tandem MS spectra were obtained at 15,000 resolution. All data were acquired in profile mode. Peak heights were analyzed using Xcalibur (ThermoFisher Scientific).
Lipid metabolomics were acquired using a Waters CSH-C18 (2.1×100 mm, 1.7 μm) column coupled to a Dionex UltiMate 3000 system. The column oven temperature was held at 55° C. The flow rate was 300 μL/min and the injection volume was 1 μL. Buffer A was 60:40 acetonitrile:water, 0.1% formic acid and Buffer B was 90:10 isopropanol:acetonitrile, 10 mM ammonium formate. […]

O=C(O)c1ccc(O)c2ncccc12 [IOX1]
4-HMA 18O labeling (human cells): decreased | 13C9-Tyr-derived 4-HMA (MIAPACA2 cells; 3% 16O2, 24 hours): attenuated or ablated; also recorded: severely inhibited | CoQ10 labelling from 13C9-Tyr (incorporation of tyrosine into CoQ10) (MIAPACA2 cells; 3% 16O2, 24 hours): eliminated; also recorded: completely blocked | 4-HPLA pools (MIAPACA2 cells; 13C-Tyr, 3% O2, 24 hours): increased
